# pEC50: −log10 of the molar value. Like-named read-outs stand apart in the source and are kept apart here.
# Legend:
# [1] = system: Trypanosoma cruzi amastigotes (Tulahuen strain expressing Lac-Z) cultured in 3T3 fibroblast cells; test: microbe, parasite or virus in culture; format: cell-based; settings: Trypanosoma cruzi, TULAHUEN, Fibroblast, T. cruzi amastigotes in 3T3 fibroblast cells, read-out: T cruzi EC50
# [2] = system: Trypanosoma brucei Lister 427 strain, bloodstream form; test: Assay for proliferation of kinetoplastid parasite Trypanosoma brucei (Cell Titer Glo, 48 hours); format: cell-based; settings: T. brucei Lister 427 bloodstream form, read-out: T. brucei EC50
# How it was run: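 Bloodstream-form T. brucei Lister 427 in HMI-9 medium was exposed to compound (DMSO vehicle) for 48 hours at 37° C, 5% CO2. Parasite growth was read as ATP by CellTiter-Glo luminescence, with EC50 calculated from percent inhibition.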
# [3] = system: L. donovani HU3 strain in mouse peritoneal macrophages; test: Assay for proliferation of Leishmania parasites in infected mouse peritoneal macrophages (SybrGreen staining, high-content imaging, 5 days); format: cell-based, Leishmania donovani; settings: L. donovani in mouse peritoneal macrophages, read-out: L. donovani Macrophage EC50
# [4] = system: Leishmania donovani axenic amastigote parasites; test: Leishmania donovani axenic amastigote proliferation assay (Cell TiterGlo luminescence, 2 day incubation); format: cell-based; settings: read-out: L. donovani amastigotes EC50
# [5] = Leishmania donovani, Peritoneal macrophage
# [6] = Leishmania donovani, L. donovani axenic amastigotes
# [7] = Trypanosoma brucei, inhibition of proliferation
# [8] = Leishmania donovani, Peritoneal macrophage, inhibition of proliferation
# [9] = Leishmania donovani, axenic amastigotes, inhibition of proliferation
smiles,measurement,setting,value
Cc1cnc(-c2cnc3nc(-c4cc(NC(=O)c5oc(C)nc5C)ccc4F)cn3c2)cn1 [Compound 452],pEC50,[1],7.35
same,pEC50,[2]; Trypanosoma brucei,7.01
same,pEC50,[3]; [5],7.21
same,pEC50,[4]; [6],7.72
CC1(C(=O)Nc2cnc3nc(-c4cc(NC(=O)N5CCCC5)ccc4F)cn3c2)CC(F)(F)C1 [Compound 146],pEC50,[1]; inhibition of proliferation,< 4.70
same,pEC50,[2]; [7],6.63
same,pEC50,[3]; [8],5.14
same,pEC50,[4]; [9],5.98
Cc1nc(C)c(C(=O)Nc2ccc(F)c(-c3cn4cc(-c5cnccc5C)cnc4n3)c2)o1 [Compound 442],pEC50,[1],7.32
same,pEC50,[2]; Trypanosoma brucei,7.26
same,pEC50,[3]; [5],6.68
same,pEC50,[4]; [6],7.06
Cc1nc(C)c(C(=O)Nc2ccc(F)c(-c3cn4cc(-c5ccncc5)cnc4n3)c2)o1 [Compound 377],pEC50,[1],6.86
same,pEC50,[2]; Trypanosoma brucei,7.38
same,pEC50,[3]; [5],6.84
same,pEC50,[4]; [6],7.12
Cc1nc(C)c(C(=O)Nc2ccc(F)c(-c3cn4cc(NC(=O)C5CCCCN5C)cnc4n3)c2)o1 (centres unmarked) [Compound 165],pEC50,[1]; inhibition of proliferation,5.29
same,pEC50,[2]; [7],5.84
same,pEC50,[3]; [8],< 4.30
same,pEC50,[4]; [9],< 4.60
O=C1CCC(C(=O)Nc2cnc3nc(-c4cc(NC(=O)N5CCCC5)ccc4F)cn3c2)N1 (centres unmarked) [Compound 125],pEC50,[1]; inhibition of proliferation,< 4.70
same,pEC50,[2]; [7],5.10
same,pEC50,[3]; [8],< 4.30
same,pEC50,[4]; [9],< 4.66
Cc1nc(C)c(C(=O)Nc2ccc(F)c(-c3cn4cc(-c5cccn5C(=O)OC(C)(C)C)cnc4n3)c2)o1 [Compound 364],pEC50,[1]; inhibition of proliferation,6.66
same,pEC50,[2]; [7],6.75
same,pEC50,[3]; [8],6.81
same,pEC50,[4]; [9],6.55
CC(C)OC(=O)Nc1cnc2nc(-c3cc(NC(=O)c4nccn4C)ccc3F)cn2c1 [Compound 97],pEC50,[1]; inhibition of proliferation,4.98
same,pEC50,[2]; [7],4.88
same,pEC50,[3]; [8],4.74
same,pEC50,[4]; [9],4.92
COC1CCC(C(=O)Nc2cnc3nc(-c4cc(NC(=O)c5oc(C)nc5C)ccc4F)cn3c2)CC1 (centres unmarked) [Compound 169],pEC50,[1]; inhibition of proliferation,5.41
same,pEC50,[2]; [7],6.28
same,pEC50,[3]; [8],5.62
same,pEC50,[4]; [9],6.15
O=C(Nc1cnc2nc(-c3cc(NC(=O)N4CCCC4)ccc3F)cn2c1)C1CCCCO1 (centres unmarked) [Compound 129],pEC50,[1]; inhibition of proliferation,5.87
same,pEC50,[2]; [7],6.91
same,pEC50,[3]; [8],5.90
same,pEC50,[4]; [9],6.36
CC(C)Nc1cnc2nc(-c3cc(NC(=O)N4CCCC4)ccc3F)cn2c1 [Compound 476],pEC50,[1],6.82
same,pEC50,[2]; Trypanosoma brucei,7.38
same,pEC50,[3]; [5],6.45
same,pEC50,[4]; [6],6.82
Cc1ncc(C(=O)Nc2ccc(F)c(-c3cn4cc(C(C)C)cnc4n3)c2)o1 [Compound 413],pEC50,[1],7.85
same,pEC50,[2]; Trypanosoma brucei,7.41
same,pEC50,[3]; [5],7.27
same,pEC50,[4]; [6],7.59
Cc1nc(C)c(C(=O)Nc2ccc(F)c(-c3cn4cc(NC(=O)c5nc(NC(=O)OC(C)(C)C)cn5C)cnc4n3)c2)o1 [Compound 176],pEC50,[1]; inhibition of proliferation,< 4.70
same,pEC50,[2]; [7],< 4.30
same,pEC50,[3]; [8],< 4.30
same,pEC50,[4]; [9],< 4.60
Cc1nc(C)c(C(=O)Nc2ccc(F)c(-c3cn4cc(F)cnc4n3)c2)o1 [Compound 199],pEC50,[1]; inhibition of proliferation,5.98
same,pEC50,[2]; [7],5.95
same,pEC50,[3]; [8],5.19
same,pEC50,[4]; [9],6.06
CC(C)c1cnc2nc(-c3cc(NC(=O)N(C)C)ccc3F)cn2c1 [Compound 417],pEC50,[1],6.87
same,pEC50,[2]; Trypanosoma brucei,6.84
same,pEC50,[3]; [5],5.89
same,pEC50,[4]; [6],6.60
Cn1cnc(-c2cnc3nc(-c4cc(NC(=O)N5CCCC5)ccc4F)cn3c2)c1 [Compound 355],pEC50,[1]; inhibition of proliferation,5.95
same,pEC50,[2]; [7],7.07
same,pEC50,[3]; [8],6.28
same,pEC50,[4]; [9],7.01
CC(C)OC(=O)Nc1cnc2nc(-c3cc(NC(=O)N4CCC5(C4)CC5(F)F)ccc3Cl)cn2c1 (centres unmarked) [Compound 261],pEC50,[1]; inhibition of proliferation,5.72
same,pEC50,[2]; [7],5.91
same,pEC50,[3]; [8],5.15
same,pEC50,[4]; [9],5.36
CCOC(=O)Nc1cnc2nc(-c3cc(NC(=O)c4oc(C)nc4C)ccc3F)cn2c1 [Compound 305],pEC50,[1]; inhibition of proliferation,6.30
same,pEC50,[2]; [7],6.79
same,pEC50,[3]; [8],6.57
same,pEC50,[4]; [9],6.95
CCOCC(=O)Nc1cnc2nc(-c3cc(NC(=O)N4CCCC4)ccc3F)cn2c1 [Compound 138],pEC50,[1]; inhibition of proliferation,5.71
same,pEC50,[2]; [7],6.90
same,pEC50,[3]; [8],5.41
same,pEC50,[4]; [9],6.26
COc1cnc2nc(-c3cc(NC(=O)c4oc(C)nc4C)ccc3F)cn2c1 [Compound 607],pEC50,[1],6.36
same,pEC50,[2]; Trypanosoma brucei,5.98
same,pEC50,[3]; [5],6.35
same,pEC50,[4]; [6],6.15
CC1COC(Nc2ccc(F)c(-c3cn4cc(NC(=O)OC(C)C)cnc4n3)c2)=N1 (centres unmarked) [Compound 502],pEC50,[1],4.96
same,pEC50,[2]; Trypanosoma brucei,5.17
same,pEC50,[3]; [5],4.80
same,pEC50,[4]; [6],< 4.60
CCCNc1cnc2nc(-c3cc(NC(=O)N4CCCC4)ccc3F)cn2c1 [Compound 474],pEC50,[1],6.32
same,pEC50,[2]; Trypanosoma brucei,6.69
same,pEC50,[3]; [5],5.96
same,pEC50,[4]; [6],6.53
CC(C)CNc1cnc2nc(-c3cc(NC(=O)N4CCCC4)ccc3F)cn2c1 [Compound 472],pEC50,[1],6.53
same,pEC50,[2]; Trypanosoma brucei,7.24
same,pEC50,[3]; [5],6.13
same,pEC50,[4]; [6],6.68
Cc1nc(C)c(C(=O)Nc2ccc(F)c(-c3cn4cc(NC(=O)C5(C#N)CC5)cnc4n3)c2)o1 [Compound 153],pEC50,[1]; inhibition of proliferation,5.47
same,pEC50,[2]; [7],6.87
same,pEC50,[3]; [8],6.05
same,pEC50,[4]; [9],6.46
Cc1nc(C)c(C(=O)Nc2ccc(F)c(-c3cn4cc(NC(=O)C5CN(C(=O)OC(C)(C)C)CCCO5)cnc4n3)c2)o1 (centres unmarked) [Compound 173],pEC50,[1]; inhibition of proliferation,6.39
same,pEC50,[2]; [7],6.83
same,pEC50,[3]; [8],6.24
same,pEC50,[4]; [9],6.45
Cc1ncc(C(=O)Nc2ccc(F)c(-c3cn4cc(N(C)C)cnc4n3)c2)o1 [Compound 467],pEC50,[1],6.89
same,pEC50,[2]; Trypanosoma brucei,6.78
same,pEC50,[3]; [5],6.58
same,pEC50,[4]; [6],6.83
Cc1nc(C)c(C(=O)Nc2ccc(F)c(-c3cn4cc(NC(=O)c5nc(N)cn5C)cnc4n3)c2)o1 [Compound 178],pEC50,[1]; inhibition of proliferation,< 4.70
same,pEC50,[2]; [7],5.53
same,pEC50,[3]; [8],< 4.37
same,pEC50,[4]; [9],5.17
O=C(Nc1ccc(F)c(-c2cn3cc(-c4ccccc4)cnc3n2)c1)N1CC(F)(F)C1 [Compound 319],pEC50,[1]; inhibition of proliferation,7.70
same,pEC50,[2]; [7],7.70
same,pEC50,[3]; [8],6.99
same,pEC50,[4]; [9],7.48
Cc1nc(C(=O)Nc2ccc(Cl)c(-c3cn4cc(NC(=O)OC(C)C)cnc4n3)c2)no1 [Compound 528],pEC50,[1],< 4.70
same,pEC50,[2]; Trypanosoma brucei,5.16
same,pEC50,[3]; [5],5.05
same,pEC50,[4]; [6],< 4.60
CCn1ccnc1C(=O)Nc1cnc2nc(-c3cc(NC(=O)c4oc(C)nc4C)ccc3F)cn2c1 [Compound 117],pEC50,[1]; inhibition of proliferation,< 4.70
same,pEC50,[2]; [7],6.78
same,pEC50,[3]; [8],< 4.30
same,pEC50,[4]; [9],6.90
CC(C)c1cnc2nc(-c3cc(NC(=O)N4CC[C@@H](F)C4)ccc3F)cn2c1 [Compound 418],pEC50,[1],7.82
same,pEC50,[2]; Trypanosoma brucei,8.10
same,pEC50,[3]; [5],7.15
same,pEC50,[4]; [6],7.54
CC(C)OC(=O)Nc1cnc2nc(-c3cccc(NC(=O)c4cnco4)c3)cn2c1 [Compound 203],pEC50,[1]; inhibition of proliferation,4.98
same,pEC50,[2]; [7],5.94
same,pEC50,[3]; [8],4.86
same,pEC50,[4]; [9],6.01
CC(C)OC(=O)Nc1cnc2nc(-c3cc(NC(=O)c4nccs4)ccc3F)cn2c1 [Compound 242],pEC50,[1]; inhibition of proliferation,6.70
same,pEC50,[2]; [7],6.32
same,pEC50,[3]; [8],5.66
same,pEC50,[4]; [9],6.16
"Cc1nc(C)c(C(=O)Nc2ccc(F)c(-c3cn4cc(NC(=O)C5CCCCO5)cnc4n3)c2)o1 (single isomer, unassigned) [Compound 184]",pEC50,[1]; inhibition of proliferation,6.25
same,pEC50,[2]; inhibition of proliferation,6.76
same,pEC50,[3]; inhibition of proliferation,6.48
same,pEC50,"[4]; axenic amastigotes, inhibition of proliferation",6.84
COC(=O)Nc1cnc2nc(-c3cc(NC(=O)c4oc(C)nc4C)ccc3F)cn2c1 [Compound 310],pEC50,[1]; inhibition of proliferation,5.91
same,pEC50,[2]; [7],6.53
same,pEC50,[3]; [8],6.25
same,pEC50,[4]; [9],6.61

# Reference: patent publication US20160045505A1, “COMPOUNDS AND COMPOSITIONS FOR THE TREATMENT OF PARASITIC DISEASES” (NOVARTIS AG, priority 2013, published 2016)
